According to the NIST ThermoML archive (doi:10.1016/j.tca.2018.10.018):
± gives the expanded uncertainty stated by the source.

Assay: xn = mol fraction of the nth substance listed
Details: 298.15 K, Liquid; for viscosity: Capillary tube (Ostwald / Ubbelohde) method; for mass density: Siemens Coriolis flowmeter

CCCCCCCCCC(=O)OC [methyl decanoate] + CCCCCCC
Details | mass density, 100 kPa [kg/m3] | mass density, 3000 kPa [kg/m3] | mass density, 6000 kPa [kg/m3] | mass density, 9000 kPa [kg/m3] | viscosity, 100 kPa [mPa·s] | viscosity, 3000 kPa [mPa·s] | viscosity, 6000 kPa [mPa·s] | viscosity, 9000 kPa [mPa·s] | viscosity, 12000 kPa [mPa·s]
x1 = 0.101 | 706 ± 2 | 709 ± 2 | 712 ± 2 | 715 ± 2 | 0.465 ± 0.015 | 0.483 ± 0.015 | 0.502 ± 0.016 | 0.519 ± 0.016 | 0.537 ± 0.017
x1 = 0.202 | 730 ± 2 | 734 ± 2 | 736 ± 2 | 739 ± 2 | 0.549 ± 0.017 | 0.575 ± 0.018 | 0.599 ± 0.019 | 0.623 ± 0.019 | 0.647 ± 0.02
x1 = 0.299 | 753 ± 2 | 756 ± 2 | 758 ± 2 | 761 ± 2 | 0.655 ± 0.02 | 0.686 ± 0.021 | 0.717 ± 0.022 | 0.746 ± 0.023 | 0.776 ± 0.024
x1 = 0.403 | 773 ± 2 | 776 ± 2 | 779 ± 2 | 781 ± 2 | 0.779 ± 0.024 | 0.815 ± 0.025 | 0.851 ± 0.026 | 0.886 ± 0.028 | 0.922 ± 0.029
x1 = 0.501 | 792 ± 2 | 795 ± 2 | 798 ± 2 | 800 ± 2 | 0.912 ± 0.028 | 0.955 ± 0.03 | 0.996 ± 0.031 | 1.038 ± 0.032 | 1.079 ± 0.034
x1 = 0.601 | 810 ± 2 | 812 ± 2 | 815 ± 2 | 817 ± 2 | 1.071 ± 0.033 | 1.119 ± 0.035 | 1.166 ± 0.036 | 1.214 ± 0.038 | 1.261 ± 0.039
x1 = 0.698 | 826 ± 2 | 828 ± 2 | 831 ± 2 | 833 ± 2 | 1.257 ± 0.039 | 1.31 ± 0.041 | 1.364 ± 0.042 | 1.417 ± 0.044 | 1.471 ± 0.046
x1 = 0.799 | 841 ± 2 | 843 ± 2 | 846 ± 2 | 848 ± 2 | 1.461 ± 0.045 | 1.52 ± 0.047 | 1.58 ± 0.049 | 1.639 ± 0.051 | 1.698 ± 0.053
x1 = 0.902 | 855 ± 2 | 857 ± 2 | 859 ± 2 | 861 ± 2 | 1.67 ± 0.052 | 1.735 ± 0.054 | 1.8 ± 0.056 | 1.865 ± 0.058 | 1.93 ± 0.06
x1 = 1 | 868 ± 2 | 870 ± 2 | 872 ± 2 | 874 ± 2 | 1.934 ± 0.06 | 1.992 ± 0.061 | 2.058 ± 0.064 | 2.123 ± 0.066 | 2.209 ± 0.068
